The source of these data is patent US20240043418A1, “1,3-DIHYDRO-2H-PYRROLO[3,4-C]PYRIDINE DERIVATIVES AS GABAA A5 RECEPTOR MODULATORS” (Richter Gedeon Nyrt., priority 2020, published 2024).

pKi: −log10 of the molar value.

Test [1] addresses T1, human recombinant GABAA α5β3γ2 receptor (Homo sapiens (Human), UniProt P18507+P31644). Briefly: Receptor binding assay, [3H]Ro151788 displacement on membranes of HEK cells. The settings on record: [3H]Ro151788 0.5 nM, HEK cell membranes, 60 minutes at 4° C.; read-out: hGABAA α5 Ki. As to the method: The GABAA α5β3γ2 protein used for the receptor binding assay was derived from membranes produced from HEK cells (Millipore CYL3073) expressing the human recombinant GABAA α5β3γ2 receptor. Cells were stored and cultured in-house according to the instructions provided by the vendor (Millipor). Cell pellet was homogenized in 10 times modified Krebs Henseleit buffer (membrane preparation buffer): 20 mM Tris, 120 mM NaCl, 100 mM KCl, 25 mM CaCl2 and 25 mM MgCl2 pH=7.4 at 4° C. using Ultra Turrax (Janke&Kunkel) maximal speed for 15 seconds. The homogenate was centrifuged at 40,000 g for 30 minutes at 4° C. Supernatant was discarded and the resulting pellet was washed in membrane preparation buffer. Pellet was resuspended in membrane preparation buffer and aliquots of 1.4 mL ampulles were stored at −70° C. until use.
Receptor binding assays were performed in 96-well format in deep-well plates. For each 96-well plate one ampulle of membrane homogenate was thawed and diluted in binding buffer (50 mM Tris pH=7.4, 100 mM KCl) and 200 μL was dispensed into each well. Radioligand [^3H]Rol51788 (Perkin Elmer: NET757250UC) was prepared in binding buffer and added to each well in 50 μL volume to give final concentration of 0.5 nM. Test compounds in suitable concentration(s) were added in additional 50 μL. The final assay volume was 300 μL. Incubation was carried out for 60 minutes at 4° C. For non-specific binding 10 μM unlabeled diazepam was used. […] The plate was read in Microbeta (Perkin Elmer).
The specific radioligand binding (SB) was defined as the difference between total binding (Tot) and the non-specific binding (NSB). Results are expressed as a percent inhibition of specific binding obtained in the presence of compound of interest.
For IC50 and Ki determination a minimum of six drug concentrations in triplicate were used. […] Ki values (i.e. inhibition constants) were calculated using the Cheng-Prusoff equation Ki=IC50/[1+(L/KD)], where [L] is the radioligand concentration and KD the affinity of the labelled ligand for receptor. KD was determined from the Saturation analyses.

In test [2] the target is human recombinant GABAA α1β3γ2 receptor (Homo sapiens (Human), UniProt P14867+P18507). Briefly: Functional assay, QPatch automated patch clamp, modulation of GABA-evoked current. The settings on record: tested at 10 μM; GABA 1 μM; HEK293 cells; percentage modulation of peak current. The format is cell-based. As for the experimental part: (§1) Human HEK293 cell lines expressing GABAA α1β3γ2 and GABAA α5β3γ2 receptors were used in functional assays using the QPatch automated patch clamp system.
(§2) HEK293 cell lines stably expressing human recombinant GABAA α1β3γ2 receptor subunits (Millipore, CYL3073) or human recombinant GABAA α5β3γ2 receptor subunits (Millipore, CYL3053) were cultured in DMEM supplemented with 10% FBS (Gibco), passed two times per week and plated on Petri dishes previously coated with poly-d-lysine.
(§3) Automated whole-cell patch clamp recordings were made from cells 2-4 days after plating. Cells were detached using trypsin/EDTA (Sigma) treatment (2 minutes in 0.25% trypsin at 37° C.), then, after centrifugation (125G, 3 min, 2×), resuspended in a serum-free based media (Gibco, CHO-S-SFM-II) containing 12.5 mM HEPES, 1×penicillin-streptomycin-amphotericin (SigmaMix) and soybean trypsin inhibitor (Sigma, 0.04 mg/ml).
(§4) Cell suspension, as well as the extracellular solution (130 mM NaCl, 5 mM KCl, 5.1 mM HEPES, 4.9 mM HEPES-Na, 10 mM CaCl2), 2 mM MgCl2, 10 mM glucose and 0.1% DMSO, pH=7.35-7.4) and the intracellular solution (80 mM KCl, 50 mM KF, 36 mM KOH, 10 mM EGTA, 10 mM HEPES, 1.75 mM MgCl2, 0.5 mM CaCl2), 4 mM Na2ATP. 14 mM phosphocreatine, 50 U/ml creatine-phosphokinase, 0.3 mM GTP, pH=7.25-7.3) were added to the QPatch-HTX automated patch clamp system (Sophion) in single-cell mode at room temperature. Inward currents were evoked at a holding potential of −80 mV by 3-s-long applications of the control agonist GABA at sub-maximal effective concentration (1 μM) at 2-4-min intervals first in concentration-matched DMSO (0.1 or 0.3%) control solution for five times, then in the presence of the test compound for four times, finally in control solution again for three times (wash-out). At the end of the experiment 100 μM GABA was applied to saturate the GABA-response and to assess the efficacy of the control GABA application. Current signals were low-pass filtered at 100 Hz and recorded at a sampling rate of 1 kHz.
(§5) The percentage modulation was calculated from the comparison of GAB A-evoked peak current amplitudes in the presence and absence of the test compound.
(Patch clamp records ionic current or voltage across a cell membrane.)

The target in test [3] is T1, human recombinant GABAA α5β3γ2 receptor. Described as above. It counts as cell-based. The settings on record: tested at 10 μM; GABA 1 μM; HEK293 cells; percentage modulation of peak current. As to the method:
as §1, §2, §3, §4, §5

What is called pKi is the Ki on a negative log10 scale, so that one unit is a factor of ten.

T1 sequence (P31644 32-462): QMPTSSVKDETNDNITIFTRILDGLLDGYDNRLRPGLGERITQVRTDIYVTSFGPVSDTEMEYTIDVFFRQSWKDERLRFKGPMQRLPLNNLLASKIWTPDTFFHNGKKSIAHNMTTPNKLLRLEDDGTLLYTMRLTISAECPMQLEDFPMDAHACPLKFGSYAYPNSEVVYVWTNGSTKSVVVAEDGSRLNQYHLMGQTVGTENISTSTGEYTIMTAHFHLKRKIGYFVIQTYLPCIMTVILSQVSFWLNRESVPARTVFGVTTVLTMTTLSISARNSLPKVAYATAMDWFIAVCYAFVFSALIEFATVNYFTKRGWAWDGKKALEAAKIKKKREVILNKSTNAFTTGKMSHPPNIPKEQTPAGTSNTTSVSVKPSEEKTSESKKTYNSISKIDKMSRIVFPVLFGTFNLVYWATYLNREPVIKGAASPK
T1 sequence (P18507 40-475): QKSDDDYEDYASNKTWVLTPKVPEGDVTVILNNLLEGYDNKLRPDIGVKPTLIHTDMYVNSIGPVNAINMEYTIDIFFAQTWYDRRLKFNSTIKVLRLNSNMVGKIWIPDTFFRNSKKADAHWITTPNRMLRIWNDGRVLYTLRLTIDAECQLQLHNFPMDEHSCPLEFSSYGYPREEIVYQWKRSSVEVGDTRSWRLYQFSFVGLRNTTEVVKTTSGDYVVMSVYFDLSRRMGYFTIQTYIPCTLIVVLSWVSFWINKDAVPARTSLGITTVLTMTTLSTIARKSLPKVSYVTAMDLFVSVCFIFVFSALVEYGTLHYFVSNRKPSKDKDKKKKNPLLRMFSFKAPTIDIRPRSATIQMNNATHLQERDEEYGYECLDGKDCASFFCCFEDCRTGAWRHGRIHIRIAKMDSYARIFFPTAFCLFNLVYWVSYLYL
T1 sequence (P28472 26-473 partner): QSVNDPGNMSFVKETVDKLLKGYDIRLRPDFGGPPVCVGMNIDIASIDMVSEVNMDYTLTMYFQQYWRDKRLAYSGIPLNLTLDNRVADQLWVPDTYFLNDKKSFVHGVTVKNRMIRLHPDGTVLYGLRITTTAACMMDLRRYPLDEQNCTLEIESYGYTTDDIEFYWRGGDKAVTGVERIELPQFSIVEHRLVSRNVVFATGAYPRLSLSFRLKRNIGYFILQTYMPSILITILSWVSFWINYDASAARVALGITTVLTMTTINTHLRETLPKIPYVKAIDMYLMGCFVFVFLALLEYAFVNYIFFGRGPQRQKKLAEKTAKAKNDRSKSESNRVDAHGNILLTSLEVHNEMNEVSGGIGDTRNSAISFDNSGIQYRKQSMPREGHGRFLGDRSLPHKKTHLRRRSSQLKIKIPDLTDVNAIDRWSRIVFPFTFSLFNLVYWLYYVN
Sequence of human recombinant GABAA α1β3γ2 receptor (P14867 28-456): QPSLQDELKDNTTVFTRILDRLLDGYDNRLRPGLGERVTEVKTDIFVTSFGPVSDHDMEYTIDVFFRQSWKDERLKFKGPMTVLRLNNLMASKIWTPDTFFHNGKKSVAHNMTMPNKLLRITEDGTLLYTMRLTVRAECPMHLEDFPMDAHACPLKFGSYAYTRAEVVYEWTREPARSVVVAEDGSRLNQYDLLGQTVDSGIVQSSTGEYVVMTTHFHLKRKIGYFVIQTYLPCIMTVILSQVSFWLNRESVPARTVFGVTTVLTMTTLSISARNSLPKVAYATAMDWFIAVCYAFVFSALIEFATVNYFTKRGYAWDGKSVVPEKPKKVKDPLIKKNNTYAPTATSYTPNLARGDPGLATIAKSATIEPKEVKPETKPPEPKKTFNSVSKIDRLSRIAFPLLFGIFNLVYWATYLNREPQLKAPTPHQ
Sequence of human recombinant GABAA α1β3γ2 receptor (P18507 40-475): as the sequence (P18507 40-475) above
Sequence of human recombinant GABAA α1β3γ2 receptor (P28472 26-473 partner): as the sequence (P28472 26-473 partner) above

`CC(=O)N1Cc2cnc(OCc3c(C)nnn3-c3ccc(F)cc3)cc2C1` [Example 1, 1-(6-{[1-(4-fluorophenyl)-4-methyl-1H-1,2,3-triazol-5-yl]methoxy}-1,3-dihydro-2H-pyrrolo[3,4-c]pyridin-2-yl)ethanone]: in test [1], the pKi is 8.00. The “hGABAA α1 efficacy” value in test [2] is given as −2%. The “hGABAA α5 efficacy” value in test [3] is on record as −43%.

In the case of `CC(=O)N1Cc2cnc(OCc3c(-c4ccc(F)cc4)nnn3C)cc2C1` [Example 2, 1-(6-{[4-(4-fluorophenyl)-1-methyl-1H-1,2,3-triazol-5-yl]methoxy}-1,3-dihydro-2H-pyrrolo[3,4-c]pyridin-2-yl)ethanone], the pKi in test [1] was 7.49. Besides, in test [2], the “hGABAA α1 efficacy” value is −6%. Also, the “hGABAA α5 efficacy” value in test [3] is −47%.

Turning to `CC(=O)N1Cc2cnc(OCc3c(-c4ccc(F)cc4)noc3C)cc2C1` [Example 3, 1-(6-{[3-(4-fluorophenyl)-5-methyl-1,2-oxazol-4-yl]methoxy}-1,3-dihydro-2H-pyrrolo[3,4-c]pyridin-2-yl)ethanone], the negative-log Ki (pKi) in test [1] was 9.05. In addition, in test [2], the “hGABAA α1 efficacy” value worked out at 13%. In test [3], the “hGABAA α5 efficacy” value is reported as −44%.
